Measured values taken from article PMC11985408, “Tsrp1 Is a Novel Cyclic Diguanosine Monophosphate Effector that Plays a Role in the Organic-Solvent Tolerance of Rhodococcus ruber” (Journal of Microbiology and Biotechnology, 2025).

Target: Tsrp1
Assay: localized surface plasmon resonance, Tsrp1 immobilised on NTA chip, one-to-one model
Type: binding, Rhodococcus ruber
Details: HEPES-buffered saline pH 7.4; c-di-GMP 62.5-500 μM; unit printed as mM in b36 but μM in abstract; read-out: dissociation constant

Kd: 0.064 ± 0.00684 mM
SMILES: Nc1nc2c(ncn2[C@@H]2O[C@@H]3COP(=O)(O)O[C@H]4[C@@H](O)[C@H](n5cnc6c(=O)[nH]c(N)nc65)O[C@@H]4COP(=O)(O)O[C@H]3[C@H]2O)c(=O)[nH]1 [c-di-GMP]
